Results from ChEMBL document CHEMBL1201862, “PubChem BioAssay data set” (2004).
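Five compound concentrations were applied to cells in 96-well plates for 48 hours; endpoints were derived by simple linear interpolation of the resulting dose-response curve. GI50 marks 50% less growth.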 Calls of active or inactive are those of the source. Rule as the data show it: active = GI50 up to about 1.1 µM and inactive = higher.

Legend:
Experiment in all cases: growth of human tumour cells (NCI), 48 h
[1] = tested on: CCRF-CEM
[2] = tested on: EKVX
[3] = tested on: HCT-116
[4] = tested on: HCT-15
[5] = tested on: HOP-62
[6] = tested on: KM12
[7] = tested on: LOX IMVI
[8] = tested on: MOLT-4
[9] = tested on: NCI-H226
[10] = tested on: NCI-H460
[11] = tested on: NCI-H522
[12] = tested on: OVCAR-5
[13] = tested on: SK-MEL-28
[14] = tested on: SK-OV-3
[15] = tested on: SN12C
[16] = tested on: U-251
[17] = tested on: UO-31
[18] = tested on: A549
[19] = tested on: COLO 205
[20] = tested on: SK-MEL-5

SMILES	GI50 [1]	GI50 [2]	GI50 [3]	GI50 [4] [µM]	GI50 [5]	GI50 [6]	GI50 [7]	GI50 [8]	GI50 [9]	GI50 [10]	GI50 [11]	GI50 [12]	GI50 [13]	GI50 [14]	GI50 [15]	GI50 [16]	GI50 [17]	GI50 [18]	GI50 [19]	GI50 [20]
CCOC(=O)NC(Nc1ncccn1)(C(F)(F)F)C(F)(F)F	> 100 µM (inactive)	> 100 µM (inactive)	> 100 µM (inactive)	> 100	> 100 µM (inactive)	> 100 µM (inactive)	> 100 µM (inactive)	> 100 µM (inactive)	> 100 µM (inactive)	> 100 µM (inactive)	> 100 µM (inactive)	> 100 µM (inactive)	> 100 µM (inactive)	> 100 µM (inactive)	> 100 µM (inactive)	> 100 µM (inactive)	> 100 µM (inactive)	–	–	–
CCN1c2ccccc2-n2c(C)nnc2-c2c(-c3ccccc3)n[nH]c21	17.5 µM (inactive)	49.7 µM (inactive)	26.5 µM (inactive)	11.1	–	26.5 µM (inactive)	23.1 µM (inactive)	18.2 µM (inactive)	–	27.8 µM (inactive)	2.25 µM (inactive)	> 100 µM (inactive)	30.5 µM (inactive)	57.9 µM (inactive)	24.4 µM (inactive)	18.5 µM (inactive)	44.8 µM (inactive)	22.4 µM (inactive)	32.4 µM (inactive)	14.5 µM (inactive)
Cc1cc(NC(=S)Nc2ccccc2)c(NC(=S)Nc2ccccc2)cc1C	13.5 µM (inactive)	39.3 µM (inactive)	14.3 µM (inactive)	13.8	15.5 µM (inactive)	5.11 µM (inactive)	39.4 µM (inactive)	12.8 µM (inactive)	47.6 µM (inactive)	12.9 µM (inactive)	7.78 µM (inactive)	> 65 µM (inactive)	38.8 µM (inactive)	35 µM (inactive)	40.4 µM (inactive)	15.7 µM (inactive)	21.6 µM (inactive)	23.3 µM (inactive)	26.1 µM (inactive)	11.4 µM (inactive)
CC1C(=O)C(C)C(c2ccco2)N(N=O)C1c1ccco1 (stereo not drawn)	> 100 µM (inactive)	> 100 µM (inactive)	> 100 µM (inactive)	> 100	> 100 µM (inactive)	> 100 µM (inactive)	> 100 µM (inactive)	> 100 µM (inactive)	> 100 µM (inactive)	> 100 µM (inactive)	> 100 µM (inactive)	> 100 µM (inactive)	> 100 µM (inactive)	> 100 µM (inactive)	> 100 µM (inactive)	> 100 µM (inactive)	> 100 µM (inactive)	> 100 µM (inactive)	> 100 µM (inactive)	> 100 µM (inactive)
O=C1CCC(=O)C1=NNc1ccccc1	> 100 µM (inactive)	> 100 µM (inactive)	> 100 µM (inactive)	> 100	> 100 µM (inactive)	> 100 µM (inactive)	> 100 µM (inactive)	> 100 µM (inactive)	> 100 µM (inactive)	> 100 µM (inactive)	–	> 100 µM (inactive)	> 100 µM (inactive)	> 100 µM (inactive)	> 100 µM (inactive)	> 100 µM (inactive)	> 100 µM (inactive)	> 100 µM (inactive)	> 100 µM (inactive)	80.4 µM (inactive)
CCOc1ncn(-c2ccc(NC(=S)Nc3ncccn3)cc2)n1	20 µM (inactive)	64 µM (inactive)	32.5 µM (inactive)	39	> 100 µM (inactive)	> 100 µM (inactive)	17.6 µM (inactive)	20.1 µM (inactive)	–	41.4 µM (inactive)	17.4 µM (inactive)	54.8 µM (inactive)	26.1 µM (inactive)	> 100 µM (inactive)	51.1 µM (inactive)	> 100 µM (inactive)	18.6 µM (inactive)	32.1 µM (inactive)	29.5 µM (inactive)	18.2 µM (inactive)
CC(=O)OC1COC(N2c3ccccc3[C@@H]3CCc4c([nH]c5ccccc45)[C@@H]32)C(OC(C)=O)C1OC(C)=O.CC(=O)OC1COC(N2c3ccccc3[C@H]3CCc4c([nH]c5ccccc45)[C@H]32)C(OC(C)=O)C1OC(C)=O (stereo partly drawn)	26.5 µM (inactive)	19 µM (inactive)	14.3 µM (inactive)	47	> 100 µM (inactive)	12.1 µM (inactive)	–	5.79 µM (inactive)	–	40.6 µM (inactive)	12.8 µM (inactive)	> 100 µM (inactive)	> 100 µM (inactive)	44.9 µM (inactive)	59.3 µM (inactive)	80.7 µM (inactive)	9.79 µM (inactive)	16.7 µM (inactive)	19.2 µM (inactive)	29.3 µM (inactive)
CC1=Nc2c(N)nc(N)nc2N(C)C1	> 100 µM (inactive)	> 100 µM (inactive)	–	> 100	> 100 µM (inactive)	> 100 µM (inactive)	–	> 100 µM (inactive)	> 100 µM (inactive)	> 100 µM (inactive)	–	> 100 µM (inactive)	> 100 µM (inactive)	> 100 µM (inactive)	> 100 µM (inactive)	> 100 µM (inactive)	74.3 µM (inactive)	–	> 100 µM (inactive)	> 100 µM (inactive)
CC(Sc1ccccc1)C(CO)(CO)[N+](=O)[O-] (stereo not drawn)	1.85 µM (inactive)	18.2 µM (inactive)	17.8 µM (inactive)	11.5	18.2 µM (inactive)	–	7.85 µM (inactive)	3.64 µM (inactive)	16.5 µM (inactive)	22.8 µM (inactive)	13.5 µM (inactive)	22.3 µM (inactive)	–	22.2 µM (inactive)	16.8 µM (inactive)	13.3 µM (inactive)	10.6 µM (inactive)	19.8 µM (inactive)	–	12.7 µM (inactive)
CCC1C(C#N)=C(O)NC(O)=C1C#N	–	> 100 µM (inactive)	> 100 µM (inactive)	> 100	> 100 µM (inactive)	> 100 µM (inactive)	> 100 µM (inactive)	–	> 100 µM (inactive)	> 100 µM (inactive)	> 100 µM (inactive)	> 100 µM (inactive)	> 100 µM (inactive)	> 100 µM (inactive)	> 100 µM (inactive)	> 100 µM (inactive)	> 100 µM (inactive)	> 100 µM (inactive)	> 100 µM (inactive)	> 100 µM (inactive)
CCP(=O)(CC)C(Cl)(Cl)C(O)C(Cl)(Cl)Cl (stereo not drawn)	> 100 µM (inactive)	–	> 100 µM (inactive)	> 100	> 100 µM (inactive)	–	> 100 µM (inactive)	> 100 µM (inactive)	> 100 µM (inactive)	> 100 µM (inactive)	> 100 µM (inactive)	> 100 µM (inactive)	> 100 µM (inactive)	> 100 µM (inactive)	> 100 µM (inactive)	> 100 µM (inactive)	> 100 µM (inactive)	> 100 µM (inactive)	> 100 µM (inactive)	> 100 µM (inactive)
O=C(CCN1CCOCC1)/C(=C/c1ccccc1)c1ccccc1	1.98 µM (inactive)	8.18 µM (inactive)	3.47 µM (inactive)	2.19	26.1 µM (inactive)	6.25 µM (inactive)	2.61 µM (inactive)	2.03 µM (inactive)	7.55 µM (inactive)	8.95 µM (inactive)	1.77 µM (inactive)	16.6 µM (inactive)	5.37 µM (inactive)	19.3 µM (inactive)	4.15 µM (inactive)	3.99 µM (inactive)	14 µM (inactive)	15.6 µM (inactive)	3.89 µM (inactive)	8.45 µM (inactive)
C=C1C(=O)OC2C[C@@]3(C)CCCC(=C)C3CC12 (stereo partly drawn)	> 100 µM (inactive)	17.1 µM (inactive)	4.05 µM (inactive)	10.9	20.5 µM (inactive)	2.24 µM (inactive)	1.22 µM (inactive)	–	12.9 µM (inactive)	4.68 µM (inactive)	1.9 µM (inactive)	19.5 µM (inactive)	11.7 µM (inactive)	19.5 µM (inactive)	4.44 µM (inactive)	10.1 µM (inactive)	4.98 µM (inactive)	12.2 µM (inactive)	2.93 µM (inactive)	7.64 µM (inactive)
CC(=O)c1c(-c2ccco2)c(C#N)c(=S)n(C2OC(CO)C(O)C(O)C2O)c1-c1ccccc1 (stereo not drawn)	43.3 µM (inactive)	43.1 µM (inactive)	66.2 µM (inactive)	73.3	47.6 µM (inactive)	64.3 µM (inactive)	36.2 µM (inactive)	31.6 µM (inactive)	–	> 100 µM (inactive)	–	> 100 µM (inactive)	38.9 µM (inactive)	> 100 µM (inactive)	54.5 µM (inactive)	28.4 µM (inactive)	51.2 µM (inactive)	> 100 µM (inactive)	> 100 µM (inactive)	35.7 µM (inactive)
COc1ccc(-c2cc(O)c3c(C)ccnc3n2)cc1	17.8 µM (inactive)	30.7 µM (inactive)	–	5.61	20.7 µM (inactive)	3.18 µM (inactive)	14.3 µM (inactive)	12.1 µM (inactive)	33.5 µM (inactive)	–	8.13 µM (inactive)	20.5 µM (inactive)	15.3 µM (inactive)	23 µM (inactive)	27.7 µM (inactive)	–	27.8 µM (inactive)	10.3 µM (inactive)	4.26 µM (inactive)	–
